Assays:
[1] = Pharmacokinetic evaluation in CD-1 mice (IV and PO); format: in vivo; conditions: male, mouse, plasma; for Vd: read-out: Vss
Experimental: Using mice as test animals, the compounds of the present disclosure were administered via intravenous bolus and oral injection. Plasma samples were collected at specific time points. Compound concentrations in plasma were determined by LC-MS/MS, and PK parameters were calculated to characterize the pharmacokinetic behavior of the compounds of the present disclosure in plasma.
CD-1 mice, male, supplied by Zhejiang Vital River Laboratory Animal Technology Co., Ltd.
Dosing regimen for CD-1 mice: Both the IV (intravenous) and PO (oral) experimental groups consisted of 3 mice. The IV group was administered at a dose of 1 mg/kg and a volume of 5 mL/kg. The PO group was administered at a dose of 30 mg/kg and a volume of 10 mL/kg. The dosing vehicle was 5% (v/v) DMSO/10% (v/v) Solutol/85% (v/v) saline.
Following administration, 0.025 mL of blood was collected via venipuncture at the following time points: 0.0833 (IV), 0.25, 0.5, 1, 2, 4, 8, and 24 hours. Blood samples were collected into EDTA-K2 tubes and centrifuged at 4°C and 2000 g for 10 minutes to separate plasma, which was stored at -80°C.
Mouse plasma processing: • 1) 15 µL of plasma was mixed with 200 µL of acetonitrile for protein precipitation. The mixture was vortexed and centrifuged for 15 minutes. • 2) The supernatant after processing was diluted with water and analyzed by LC/MS/MS to determine the concentration of the test compound.
Pharmacokinetic parameters were calculated using WinNonlin 6.1. Specifically, Cmax represents maximum plasma concentration, CL represents clearance, Vss represents volume of distribution at steady state, T1/2 represents terminal elimination half-life, MRTInf represents mean residence time, AUC represents area under the plasma concentration-time curve, and F represents bioavailability. Table 18: Pharmacokinetic parameters of the compounds of the present disclosure in CD-1 mice

PARG = target: T1, PARG (Homo sapiens, UniProt Q86W56); assay: Enzymatic inhibitory activity against PARG, HTRF assay; format: biochemical; conditions: HTRF; PARylated PARP1 protein as substrate; 60 minutes at room temperature; read-out: IC50 against PARG enzyme
T1 construct: made in house
T1 sequence (Q86W56 whole entry): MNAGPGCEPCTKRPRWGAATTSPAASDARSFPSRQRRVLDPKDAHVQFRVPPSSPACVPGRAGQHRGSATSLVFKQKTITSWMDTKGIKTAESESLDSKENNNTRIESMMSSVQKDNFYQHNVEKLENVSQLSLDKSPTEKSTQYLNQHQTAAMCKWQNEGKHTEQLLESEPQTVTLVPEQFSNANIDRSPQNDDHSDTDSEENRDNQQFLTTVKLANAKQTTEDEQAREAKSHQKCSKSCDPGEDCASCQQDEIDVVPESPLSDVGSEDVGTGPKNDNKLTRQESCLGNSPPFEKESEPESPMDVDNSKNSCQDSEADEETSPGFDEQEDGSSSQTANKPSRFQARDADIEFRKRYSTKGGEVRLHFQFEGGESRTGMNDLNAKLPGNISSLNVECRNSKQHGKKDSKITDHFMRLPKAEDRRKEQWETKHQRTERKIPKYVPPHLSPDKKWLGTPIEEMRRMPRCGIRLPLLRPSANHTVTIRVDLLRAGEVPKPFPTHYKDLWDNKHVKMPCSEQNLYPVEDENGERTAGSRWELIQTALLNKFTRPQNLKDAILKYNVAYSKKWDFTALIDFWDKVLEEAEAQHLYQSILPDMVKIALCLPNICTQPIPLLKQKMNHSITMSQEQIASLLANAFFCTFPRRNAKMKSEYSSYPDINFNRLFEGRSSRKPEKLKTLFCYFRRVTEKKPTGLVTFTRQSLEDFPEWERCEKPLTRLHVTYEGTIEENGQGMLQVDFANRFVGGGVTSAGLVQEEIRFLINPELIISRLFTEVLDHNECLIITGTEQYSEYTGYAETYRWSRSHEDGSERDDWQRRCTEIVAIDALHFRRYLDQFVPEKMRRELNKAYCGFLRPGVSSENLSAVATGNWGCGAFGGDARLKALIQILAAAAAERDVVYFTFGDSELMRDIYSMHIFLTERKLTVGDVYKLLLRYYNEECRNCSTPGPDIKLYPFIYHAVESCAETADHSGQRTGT
Summary of the method: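 Purified PARG pre-incubated with compounds (top 10 µM, 3- to 5-fold dilutions, duplicates) 15 min at room temperature, then PARylated PARP1 substrate added for 60 min in Tris pH 7.4 buffer with DTT, EDTA/EGTA, KCl. HTRF (His-Tb/SA-XL665) read-out; IC50 by four-parameter logistic fit, normalised to DMSO and control-inhibitor wells.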

Row | Compound | AUC ([1]; IV, 1 mg/kg) [µM·h] | MRT inf ([1]; IV, 1 mg/kg) [h] | clearance ([1]; IV, 1 mg/kg) [mL/min/kg] | half-life ([1]; IV, 1 mg/kg) [h] | Vd ([1]; IV, 1 mg/kg) [L/kg] | AUC ([1]; PO, 30 mg/kg) [µM·h] | Cmax ([1]; PO, 30 mg/kg) [nM] | MRT inf ([1]; PO, 30 mg/kg) [h] | half-life ([1]; PO, 30 mg/kg) [h] | IC50 (PARG) [nM]
1 | CCc1nc2n(-c3nnc(C(F)F)s3)c3cc(S(=O)(=O)NC4(C)CC4)cc(N4C[C@H](C)N[C@@H](C)C4)c3n2n1 [Compound 065R] | 0.555 | 2.3 | 50 | 2.2 | 6.8 | 11.2 | 1610 | 4.6 | 2.4 | 0.4
2 | C[C@H]1CN(c2cc(S(=O)(=O)NC3(C)CC3)cc3c2n2nc(C(F)F)nc2n3-c2nnc(C(F)F)s2)C[C@H](C)N1 [Compound 065S] |  |  |  |  |  |  |  |  |  | 1.4
3 | C[C@H]1CN(c2cc(S(=O)(=O)NC3(C)CC3)cc3c2n2nc(C(F)(F)F)nc2n3-c2nnc(C(F)F)s2)C[C@H](C)N1 [Compound 065W] | 1.26 | 5.6 | 22 | 5.2 | 7.2 | 18.3 | 1980 | 5.7 | 3.3 | 0.8
